The values below come from patent publication US20220378923A1, “BET DEGRADER” (KYOWA KIRIN CO., LTD., priority 2019, published 2022).

For experiment [1], the system named is DCAF16 KO SU-DHL-4 cells. Nature of the experiment: Inhibitory effect on cell viability using SU-DHL-4 DCAF16 knock out (KO) cell line (Test Example 6). Format: cell-based, human. The settings on record: for Activity Attenuation Ratio: (SU-DHL-4 DCAF16 KO IC50)/(SU-DHL-4 WT IC50); for IC50: DCAF16 KO SU-DHL-4 cells, 72 hours, Cell Counting Kit-8, 50% inhibition of cell viability. The protocol: The human DLBCL cell line SU-DHL-4 was purchased from DSMZ. SU-DHL-4 was passaged using RPMI1640 medium containing 10 vol % FBS. After the Cas9 gene was introduced, the cells were cultured in the above medium containing 0.01 mg/mL blasticidin (InvivoGen, Cat No. ant-bl-1). After introduction of sgRNA, the cells were cultured in the above medium containing 0.0001 mg/mL puromycin dihydrochloride (SIGMA, Cat No. P9020-10 ML). The culture conditions were 37° C. and 5% CO2.
Edit-R Lentiviral hEF1α-Blast-Cas9 Nuclease Particles (Cat No. VCAS10126) was used as a lentivirus for expressing Cas9 in human cell lines. Three types of Edit-R Human DCAF16 Lentiviral sgRNA (Cat No. VSGH10142-246568260; DNA target sequence […] (SEQ ID NO: 1), Cat No. VSGH10142-246568262; DNA target sequence […] (SEQ ID NO: 2) and Cat No. VSGH10142-246568263; DNA target sequence […] (SEQ ID NO: 3)) were used as lentiviruses for introducing DCAF16 sgRNA. As a control, Edit-R Lentiviral sgRNA Non-targeting Control #1 (Cat No. VSGC10215) was used. All lentiviruses were purchased from Dharmacon and stored at −80° C. until use.
SU-DHL-4 was suspended at 4×10^5 cells/mL in RPMI 1640 without FBS, 0.25 mL of the suspension was added to a 24-well plate, and the cells were cultured overnight. The next day, 0.003 mL of virus particles of Edit-R Lentiviral hEF1α-Blast-Cas9 Nuclease Particles was added. After culturing in a CO2 incubator for 4 hours, RPMI 1640 containing 0.75 mL of 10 vol % FBS was added. After culturing in a CO2 incubator for about 48 hours, the medium was replaced with RPMI1640 containing 10 vol % FBS, and the cells were cultured in a CO2 incubator. Four days after infection, the medium was replaced with a medium containing 0.01 mg/mL blasticidin (InvivoGen, Cat No. ant-bl-1). Then, the cells were passaged once every 2 to 3 days and thus twice in total (that is, cultured for 1 week) to obtain SU-DHL-4/Cas9, which is a Cas9-introduced SU-DHL-4 cell line.
(6) sgRNA infection SU-DHL-4/Cas9 was suspended at 4×10^5 cells/mL in RPMI 1640 without FBS, 0.25 mL of the suspension was added to a 24-well plate, and the cells were cultured overnight. The next day, a total of 4 types of sgRNA virus particles, 1 type of Control and 3 types targeting DCAF16 were added to the respective wells by 0.03 mL. After culturing in a CO2 incubator for 5 hours, RPMI 1640 containing 0.75 mL of 10 vol % FBS was added.
After culturing in a CO2 incubator for about 48 hours, the medium was replaced with RPMI1640 containing 10 vol % FBS, and the cells were cultured in a CO2 incubator. Four days after infection, the medium was replaced with a medium supplemented with 0.01 mg/mL puromycin dihydrochloride (SIGMA, Cat No. P9020-10 ML). Then, the cells were passaged once or twice a week for 2 weeks, and a cell stock was prepared using CELLBANKER I plus (Takara Bio, Cat No. CB-021). Cell line stock was stored at −80° C. Using Edit-R Lentiviral sgRNA Non-targeting Control #1, the Negative Control sequence was introduced into the SU-DHL-4 cell line, which was referred to as SU-DHL-4 NC strain, and using Edit-R Human DCAF16 Lentiviral sgRNA, […] sequence (SEQ ID NO: 1) was introduced into the SU-DHL-4 cell line, which was referred to as SU-DHL-4 DCAF16 KO1 strain, […] sequence (SEQ ID NO: 2) was introduced into the SU-DHL-4 cell line, which was referred to as SU-DHL-4 DCAF16 KO2 strain, and […] sequence (SEQ ID NO: 3) was introduced into the SU-DHL-4 cell line, which was referred to as SU-DHL-4 DCAF16 KO 3 strain.
The cultured DCAF16 KO SU-DHL-4 cells were seeded at 2000 cells/well in a transparent 384-well plate (Code No. 781182, Greiner bio-one). After seeding, the cells were pre-cultured at 37° C. in a carbon dioxide gas incubator for 18 to 25 hours. […]

Experiment [2] concerns SU-DHL-4 cells. Put plainly: Inhibitory effect on cell viability in SU-DHL-4 cell line (Test Example 1). It counts as cell-based, human. The settings on record: 72 hours; for IC50: SU-DHL-4 (wild type) cells, calculated using the measurement results of test example 1, read-out: SU-DHL-4 WT IC50; for IC90: SU-DHL-4 cells, Cell Counting Kit-8, concentration showing 90% inhibition of cell viability, read-out: SU-DHL-4 Cell Viability Inhibition Rate IC90. The procedure, abridged:
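SU-DHL-4 cells were grown at 37° C. under 5% CO2 in RPMI1640 with 10 vol % heat-inactivated FBS plus penicillin/streptomycin, seeded and precultured for 18 to 25 hours, then exposed to test compound at 0.1 vol % DMSO for 72 hours. Viability was read with Cell Counting Kit-8 by absorbance at 450 nm.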

Molecules are shown by their SMILES. Read-outs that look alike come from different tables or passages of the source.

With `CCC(=O)N1c2ccccc2[C@H](Nc2ccc(NC(=O)N3CCN(C(=O)C4CCC(N[C@@H]5C[C@H](C)N(C(=O)CC)c6ccccc65)CC4)CC3)cc2)C[C@@H]1C` (stereo partly drawn) [Compound 7p, 4-((1R,4r)-4-(((2S,4R)-2-Methyl-1-propionyl-1,2,3,4-tetrahydroquinolin-4-yl)amino)cyclohexane-1-carbonyl)-N-(4-(((2S,4R)-2-methyl-1-propionyl-1,2,3,4-tetrahydroquinolin-4-yl)amino)phenyl)piperazine-1-carboxamide], in experiment [1], the “Activity Attenuation Ratio” value is recorded as 766 and the IC50 (in general, the concentration that inhibits the measured activity by half) turned out to be 293 nM. Also, in experiment [2], the IC50 was 0.38 nM and the IC90 (as a rule, the concentration at which the effect reaches the 90% level) came to 0.79 nM.
As to `CCC(=O)N1c2ccccc2[C@H](Nc2ccc(C(=O)N3CC4CC3CN4C(=O)c3ccc(N[C@@H]4C[C@H](C)N(C(=O)CC)c5ccccc54)cc3)cc2)C[C@@H]1C` [Compound 1k, 1,1′-{(2S,2'S,4R,4′R)-{[(2,5-Diazabicyclo[2.2.1]heptane-2,5-dicarbonyl)bis(4,1-phenylene)]bis(azanediyl)}bis[2-methyl-3,4-dihydroquinoline-4,1(2H)-diyl]}bis(propan-1-one)], the “Activity Attenuation Ratio” value in experiment [1] was 34. The IC50 is 7.42 nM in experiment [1] (Homo sapiens) and 0.22 nM in experiment [2] (Homo sapiens).
With `CCC(=O)N1c2ccccc2[C@H](Nc2ccc(-c3nnc(CNC(=O)C4CCN(Cc5cc(O)cc(-c6c(C)noc6C)c5)CC4)o3)cc2)C[C@@H]1C` [Compound 12a, 1-(3-(3,5-Dimethylisoxazol-4-yl)-5-hydroxybenzyl)-N-((5-(4-(((2S,4R)-2-methyl-1-propionyl-1,2,3,4-tetrahydroquinolin-4-yl)amino)phenyl)-1,3,4-oxadiazol-2-yl)methyl)piperidine-4-carboxamide], the “Activity Attenuation Ratio” value in experiment [1] is 693. Further, the figures for the IC50 in experiment [1] (Homo sapiens) and in experiment [2] (Homo sapiens) were 354 nM and 0.51 nM, respectively.
For `CCC(=O)N1c2ccccc2[C@H](Nc2ccc(-n3cc(CCNC(=O)[C@H]4CC[C@H](N[C@@H]5C[C@H](C)N(C(=O)CC)c6ccccc65)CC4)nn3)cc2)C[C@@H]1C` [Compound 8a, (1R,4r)-4-(((2S,4R)-2-Methyl-1-propionyl-1,2,3,4-tetrahydroquinolin-4-yl)amino)-N-(2-(1-(4-(((2S,4R)-2-methyl-1-propionyl-1,2,3,4-tetrahydroquinolin-4-yl)amino)phenyl)-1H-1,2,3-triazol-4-yl)ethyl)cyclohexane-1-carboxamide], in experiment [2], the IC90 is 0.87 nM.
For the compound `CCC(=O)N1c2ccccc2[C@H](Nc2ccc(CNCc3cn(-c4ccc(N[C@@H]5C[C@H](C)N(C(=O)CC)c6ccccc65)cc4)nn3)cc2)C[C@@H]1C` [Compound 5h, 1-((2S,4R)-2-Methyl-4-((4-((((1-(4-(((2S,4R)-2-methyl-1-propionyl-1,2,3,4-tetrahydroquinolin-4-yl)amino)phenyl)-1H-1,2,3-triazol-4-yl)methyl)amino)methyl)phenyl)amino)-3,4-dihydroquinolin-1(2H)-yl)propan-1-one], the “Activity Attenuation Ratio” value in experiment [1] worked out at 942. Also, the IC50 in experiment [1] (Homo sapiens) is 58.4 nM; in experiment [2] (Homo sapiens) it was 0.06 nM.
As to `CCC(=O)N1c2ccccc2[C@H](Nc2ccc(C(=O)NC3CCN(C(=O)c4ccc(N[C@@H]5C[C@H](C)N(C(=O)CC)c6ccccc65)cc4)CC3)cc2)C[C@@H]1C` (relative stereo) [Compound 1c, 4-{[(2S*,4R*)-2-Methyl-1-propionyl-1,2,3,4-tetrahydroquinolin-4-yl]amino}-N-[1-(4-{[(2S*,4R*)-2-methyl-1-propionyl-1,2,3,4-tetrahydroquinolin-4-yl]amino}benzoyl)piperidin-4-yl]benzamide], the “Activity Attenuation Ratio” value in experiment [1] is given as 131. The IC50 in experiment [1] (Homo sapiens) was 385 nM; in experiment [2] (Homo sapiens) it was 2.93 nM.
On to `Cc1sc2c(c1C)C(c1ccc(Cl)cc1)=N[C@@H](CC(=O)NCCOCCOCCOCCOCCOCCOCCOCCNC(=O)C[C@@H]1N=C(c3ccc(Cl)cc3)c3c(sc(C)c3C)-n3c(C)nnc31)c1nnc(C)n1-2` [compound 2, reference compound], for which, in experiment [1], the “Activity Attenuation Ratio” value turned out to be 0.32 and it took 75.7 nM to reach half-maximal inhibition (IC50). Moreover, in experiment [2], the IC50 was 235 nM and the IC90 was above 10000 nM.
On to `CCC(=O)N1c2ccccc2[C@H](NCc2ccc(C(=O)N3CC(C(=O)Nc4ccc(N[C@@H]5C[C@H](C)N(C(=O)CC)c6ccccc65)cc4)C3)cc2)C[C@@H]1C` (relative stereo) [Compound 10g, 1-(4-((((2S*,4R*)-2-Methyl-1-propionyl-1,2,3,4-tetrahydroquinolin-4-yl)amino)methyl)benzoyl)-N-(4-(((2S,4R)-2-methyl-1-propionyl-1,2,3,4-tetrahydroquinolin-4-yl)amino)phenyl)azetidine-3-carboxamide], for which the “Activity Attenuation Ratio” value in experiment [1] came out at 154. Also, the values for the IC50 in experiment [1] (Homo sapiens) and in experiment [2] (Homo sapiens) were 142 nM and 0.91 nM, respectively.
Consider `Cc1sc2c(c1C)C(c1ccc(C(=O)NCc3cn(-c4ccc(C5=N[C@@H](CC(=O)OC(C)(C)C)c6nnc(C)n6-c6sc(C)c(C)c65)cc4)nn3)cc1)=N[C@@H](CC(=O)OC(C)(C)C)c1nnc(C)n1-2` [Compound 3b, tert-Butyl 2-[(S)-4-(4-{4-[(4-{(S)-6-[2-(tert-butoxy)-2-oxoethyl]-2,3,9-trimethyl-6H-thieno[3,2-f][1,2,4]triazolo[4,3-a][1,4]diazepin-4-yl}benzamide)methyl]-1H-1,2,3-triazol-1-yl}phenyl)-2,3,9-trimethyl-6H-thieno[3,2-f][1,2,4]triazolo[4,3-a][1,4]diazepin-6-yl]acetate], for which, in experiment [2], the IC90 amounted to 0.18 nM.
`CCC(=O)N1c2ccccc2[C@H](Nc2ccc(NC(=O)CCCC(=O)Nc3ccc(N[C@@H]4C[C@H](C)N(C(=O)CC)c5ccccc54)cc3)cc2)C[C@@H]1C` [Compound 6k, N^1,N^5-Bis(4-(((2S,4R)-2-methyl-1-propionyl-1,2,3,4-tetrahydroquinolin-4-yl)amino)phenyl)glutaramide]: the “Activity Attenuation Ratio” value in experiment [1] is 520. 31.2 nM corresponded to half-maximal inhibition in experiment [1] (Homo sapiens) (IC50).
Regarding `CCC(=O)N1c2ccccc2[C@H](Nc2ccc(C(=O)NCCCNC(=O)c3ccc(C4=N[C@@H](CC(=O)OC(C)(C)C)c5nnc(C)n5-c5sc(C)c(C)c54)cc3)cc2)C[C@@H]1C` [Compound 1h, tert-Butyl 2-[(S)-2,3,9-trimethyl-4-(4-{[3-(4-{[(2S,4R)-2-methyl-1-propionyl-1,2,3,4-tetrahydroquinolin-4-yl]amino}benzamide)propyl]carbamoyl}phenyl)-6H-thieno[3,2-f][1,2,4]triazolo[4,3-a][1,4]diazepin-6-yl]acetate], in experiment [2], the IC90 came out at 0.27 nM.
